Measurements as given in US20250136722A1, “CYTOTOXICITY TARGETING CHIMERAS” (GLAXOSMITHKLINE INTELLECTUAL PROPERTY DEVELOPMENT LIMITED, priority 2021, published 2025).

Tests used:
[1] = molecular target: Anti-cotinine antibody (SEQ ID NO: 11 / SEQ ID NO: 12, rabbit variable region with human IgG1 Fc domain); assay: Binding of anti-cotinine antibody to ARM compounds by SPR, Biacore T200, 37° C. (Example 202); conditions: pH 7.4, rabbit variable region/human IgG1 Fc antibody captured on protein A
Summary of the method: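 Antibody captured on protein A chip. Compounds injected (3-fold, 5-point, top 200 nM) at 100 μL/min with 200 s association and 2000 s dissociation, at 37° C. in HEPES pH 7.4 buffer with 1% DMSO. Double-referenced data fit to 1:1 kinetics. Kd = koff/kon, reported as pKd, averaged over runs.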

[2] = molecular target: human alpha1 nicotinic acetylcholine (nACh) receptor (Homo sapiens, UniProt P02708+Q07001); assay: Nicotinic acetylcholine receptor antagonism assay, IONFlux automated patch clamp (Example 203); type: cell-based; conditions: for IC50: nAChR antagonism, ACh stimulated, patch clamp; for Emax at 10 µM: maximum percentage antagonism at maximum concentration tested 10 μM
Chain of human alpha1 nicotinic acetylcholine (nACh) receptor (P02708 21-457): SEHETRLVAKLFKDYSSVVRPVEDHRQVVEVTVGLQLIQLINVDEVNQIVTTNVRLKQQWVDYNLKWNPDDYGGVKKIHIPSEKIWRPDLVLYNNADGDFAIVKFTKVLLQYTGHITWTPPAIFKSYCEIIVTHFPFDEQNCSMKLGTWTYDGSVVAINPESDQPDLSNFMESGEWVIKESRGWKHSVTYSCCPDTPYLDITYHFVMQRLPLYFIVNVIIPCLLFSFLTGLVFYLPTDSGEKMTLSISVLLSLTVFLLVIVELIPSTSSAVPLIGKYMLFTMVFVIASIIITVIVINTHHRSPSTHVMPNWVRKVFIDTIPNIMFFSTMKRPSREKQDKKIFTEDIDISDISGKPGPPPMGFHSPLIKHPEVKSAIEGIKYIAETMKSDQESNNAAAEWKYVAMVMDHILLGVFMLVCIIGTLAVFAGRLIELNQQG
Chain of human alpha1 nicotinic acetylcholine (nACh) receptor (P11230 24-501 partner): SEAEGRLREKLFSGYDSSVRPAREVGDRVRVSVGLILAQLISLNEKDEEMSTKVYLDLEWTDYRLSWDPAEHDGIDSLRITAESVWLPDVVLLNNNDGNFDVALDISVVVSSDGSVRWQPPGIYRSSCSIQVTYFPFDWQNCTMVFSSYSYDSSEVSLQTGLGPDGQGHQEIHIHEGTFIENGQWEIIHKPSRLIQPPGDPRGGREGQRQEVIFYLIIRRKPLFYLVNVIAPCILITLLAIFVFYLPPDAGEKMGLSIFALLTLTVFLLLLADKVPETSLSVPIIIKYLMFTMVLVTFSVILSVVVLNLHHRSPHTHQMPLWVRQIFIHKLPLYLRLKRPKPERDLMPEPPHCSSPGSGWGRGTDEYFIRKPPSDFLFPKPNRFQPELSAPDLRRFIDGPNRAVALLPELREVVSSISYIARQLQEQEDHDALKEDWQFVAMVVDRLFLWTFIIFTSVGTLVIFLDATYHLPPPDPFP
Chain of human alpha1 nicotinic acetylcholine (nACh) receptor (Q07001 22-517): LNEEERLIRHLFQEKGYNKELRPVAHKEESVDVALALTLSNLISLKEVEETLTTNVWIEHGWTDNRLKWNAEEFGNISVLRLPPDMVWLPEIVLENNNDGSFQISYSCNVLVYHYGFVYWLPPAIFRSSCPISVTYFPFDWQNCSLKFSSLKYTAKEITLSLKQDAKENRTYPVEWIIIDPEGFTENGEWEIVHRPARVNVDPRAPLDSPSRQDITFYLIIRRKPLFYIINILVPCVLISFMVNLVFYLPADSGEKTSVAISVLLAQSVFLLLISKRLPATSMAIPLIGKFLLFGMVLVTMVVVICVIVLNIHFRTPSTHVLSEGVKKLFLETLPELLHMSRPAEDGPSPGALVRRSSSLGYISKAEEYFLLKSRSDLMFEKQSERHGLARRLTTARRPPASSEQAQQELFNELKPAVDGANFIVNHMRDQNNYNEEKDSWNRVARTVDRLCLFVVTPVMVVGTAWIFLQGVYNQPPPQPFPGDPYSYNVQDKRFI
Summary of the method: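 Human α1 nAChR-expressing cells were preincubated with compound (top 10 μM or 100 μM), then stimulated with 10 mM ACh; peak currents were recorded by IONFlux automated patch clamp. Percent inhibition versus ACh-alone control was vehicle- and rundown-corrected, then fitted to give IC50, with maximal antagonism at the top concentration; recordings with control current <500 pA were excluded.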

pKd of Antibody for ARM Compound of Formula (I) [1]	IC50 [2] [µM]	Emax at 33.33 µM ([2]; maximum percentage antagonism at maximum concentration tested 33.33 μM, read-out: Maximum Response (%)) [%]	Emax at 10 µM ([2]; read-out: Maximum Response (%)) [%]	SMILES	Emax at 100 µM ([2]; maximum percentage antagonism at maximum concentration tested 100 μM, read-out: Maximum Response (%)) [%]
9.199	> 33.3	48		CN1C(=O)C[C@H](C(=O)NCCO[C@H]2CC[C@H](OCCCC(=O)N[C@H]3CC[C@H](C(=O)N[C@@H]4C[C@H](NC(C)(C)C)CC[C@@H]4N4CC[C@H](Nc5ncnc6ccc(C(F)(F)F)cc56)C4=O)CC3)CC2)[C@H]1c1cccnc1 [Example 10]	
9.7475	> 10		7.3	CN1C(=O)C[C@H](C(=O)NCCOCCOCCOCCOCCOCCC(=O)N[C@@H]2C[C@H](NC(C)(C)C)CC[C@@H]2N2CC[C@H](Nc3ncnc4ccc(C(F)(F)F)cc34)C2=O)[C@H]1c1cccnc1 [Example 37]	
9.611	> 10		-2.2	CN1C(=O)C[C@H](C(=O)NCCOCCOCCOCCOCCOCCOCCC(=O)N[C@@H]2C[C@H](NC(C)(C)C)CC[C@@H]2N2CC[C@H](Nc3ncnc4ccc(C(F)(F)F)cc34)C2=O)[C@H]1c1cccnc1 [Example 38]	

SMILES	pKd of Antibody for ARM Compound of Formula (I) [1]	IC50 [2] [µM]	Emax at 33.33 µM ([2]; maximum percentage antagonism at maximum concentration tested 33.33 μM, read-out: Maximum Response (%)) [%]	Emax at 10 µM ([2]; read-out: Maximum Response (%)) [%]	Emax at 100 µM ([2]; maximum percentage antagonism at maximum concentration tested 100 μM, read-out: Maximum Response (%)) [%]
CC(C)N(C)[C@@H]1CC[C@H](N2CC[C@H](Nc3ncnc4ccc(C(F)(F)F)cc34)C2=O)[C@H](NC(=O)[C@H]2CC[C@H](NC(=O)CCCO[C@H]3CC[C@H](OCCNC(=O)[C@H]4CC(=O)N(C)[C@@H]4c4cccnc4)CC3)CC2)C1 [Example 1, (2S,3S)-N-(2-(((1R,4S)-4-(4-(((1R,4R)-4-(((1R,2S,5R)-5-(Isopropyl(methyl)amino)-2-((S)-2-oxo-3-((6-(trifluoromethyl)quinazolin-4-yl)amino)pyrrolidin-1-yl)cyclohexyl)carbamoyl)cyclohexyl)amino)-4-oxobutoxy)cyclohexyl)oxy)ethyl)-1-methyl-5-oxo-2-(pyridin-3-yl)pyrrolidine-3-carboxamide]	9.654	84.6			25.6
